Test: Displacement of [125I]TZDM from beta amyloid 42 fibril

Row | Structure (SMILES) | Ki
1 | CC(C(=O)O)c1ccc(N2Cc3ccccc3C2=O)cc1 (stereo not given) [INDOPROFEN] | 520 pM
2 | CN(C)c1ccc(N2Cc3ccc(Cl)cc3C2=O)cc1 | 500 pM
3 | COc1cc(N2Cc3ccccc3C2=O)ccc1N(C)C | 900 pM
4 | CN(C)c1ccc(N2Cc3cc(Cl)ccc3C2=O)cc1 | 760 pM
5 | COc1cc(N2C(=O)c3ccc(F)cc3C2=O)ccc1N(C)C | 780 pM
6 | COc1cc(N2C(=O)c3ccc(Br)cc3C2=O)ccc1N(C)C | 420 pM
7 | CN(C)c1ccc(N2C(=O)c3ccccc3C2=O)cc1 | 690 pM
8 | CN(C)c1ccc(N2Cc3cc(Br)ccc3C2=O)cc1 | 810 pM
9 | Cc1ccc2c(c1)C(=O)N(c1ccc(N(C)C)cc1)C2 | 760 pM
10 | Cc1ccc2c(c1)C(=O)N(c1ccc(N(C)C)cc1)C2=O | 500 pM
11 | COc1ccc2c(c1)C(=O)N(c1ccc(N(C)C)cc1)C2=O | 710 pM
12 | COc1ccc(N2Cc3ccccc3C2=O)cc1N(C)C | 650 pM

Continued by falling Ki, values first:

Row | Ki | Structure (SMILES)
13 | 940 pM | COc1ccc2c(c1)CN(c1ccc(N(C)C)cc1)C2=O
14 | 930 pM | CN(C)c1ccc(N2Cc3ccc(F)cc3C2=O)cc1
15 | 700 pM | COc1cc(N2C(=O)c3ccc(Cl)cc3C2=O)ccc1N(C)C
16 | 700 pM | CNc1ccc(-c2nc3ccc(O)cc3s2)cc1 [PITTSBURGH COMPOUND B UNLABELLED]
17 | 700 pM | CN(C)c1ccc(N2C(=O)c3ccc(N(C)C)cc3C2=O)cc1
18 | 660 pM | COc1cc(N2C(=O)c3ccccc3C2=O)ccc1N(C)C
19 | 580 pM | CN(C)c1ccc(N2Cc3ccccc3C2=O)cc1
20 | 570 pM | CN(C)c1cccc(N2Cc3ccccc3C2=O)c1
21 | 560 pM | CN(C)c1ccc(N2C(=O)c3ccc(F)cc3C2=O)cc1
22 | 490 pM | CN(C)c1ccc(N2Cc3cc(F)ccc3C2=O)cc1
23 | 460 pM | COc1cc(N2Cc3ccc(C)cc3C2=O)ccc1N(C)C
24 | 460 pM | CN(C)c1cccc(N2C(=O)c3ccccc3C2=O)c1
25 | 440 pM | COc1ccc(N2C(=O)c3ccccc3C2=O)cc1N(C)C
